Assays:
Assay in all cases: relative viability (nuclei count vs DMSO), 5 days (fraction); higher = more cells survive
GSK126 + Alpelisib = compound: CC[C@H](C)N1C=C(C2=C(C=C(C=C21)C3=CN=C(C=C3)N4CCNCC4)C(=O)NCC5=C(C=C(NC5=O)C)C)C [GSK126] + Cc1nc(NC(=O)N2CCC[C@H]2C(N)=O)sc1-c1ccnc(C(C)(C)C(F)(F)F)c1 [Alpelisib] (partner 2 µM)
How it was run: (§1)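 Lung cancer cell lines, seeded in 1536-well plates, were treated the following day by pin tool with a single drug or with five library-drug doses (not always all listed) in √10 steps on top of a fixed anchor-drug dose. Cells were fixed and nuclei stained in one step after 5 days, and nuclei were counted. Relative viability is the nuclei count for treated wells divided by that for vehicle wells, reported as medians of duplicate plates.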

GSK126 + Decitabine = compound: CC[C@H](C)N1C=C(C2=C(C=C(C=C21)C3=CN=C(C=C3)N4CCNCC4)C(=O)NCC5=C(C=C(NC5=O)C)C)C [GSK126] + Nc1ncn([C@H]2C[C@H](O)[C@@H](CO)O2)c(=O)n1 [Decitabine] (partner 2 µM)
How it was run: as §1

MLN4924 + Palbociclib = compound: NS(=O)(=O)OC[C@@H]1C[C@@H](n2ccc3c(N[C@H]4CCc5ccccc54)ncnc32)C[C@@H]1O [MLN4924] + CC(=O)c1c(C)c2cnc(Nc3ccc(N4CCNCC4)cn3)nc2n(C2CCCC2)c1=O [Palbociclib] (partner 0.5 µM)
How it was run: as §1

MLN4924 + Vorinostat = compound: NS(=O)(=O)OC[C@@H]1C[C@@H](n2ccc3c(N[C@H]4CCc5ccccc54)ncnc32)C[C@@H]1O [MLN4924] + O=C(CCCCCCC(=O)Nc1ccccc1)NO [Vorinostat] (partner 1 µM)
How it was run: as §1

Cell Line | relative viability (GSK126 + Alpelisib; first compound 0.08 µM) | relative viability (GSK126 + Alpelisib; first compound 0.253 µM) | relative viability (GSK126 + Alpelisib; first compound 0.8 µM) | relative viability (GSK126 + Alpelisib; first compound 2.53 µM) | relative viability (GSK126 + Alpelisib; first compound 8 µM) | relative viability (GSK126 + Decitabine; first compound 0.08 µM) | relative viability (GSK126 + Decitabine; first compound 0.253 µM) | relative viability (GSK126 + Decitabine; first compound 0.8 µM) | relative viability (GSK126 + Decitabine; first compound 2.53 µM) | relative viability (GSK126 + Decitabine; first compound 8 µM) | relative viability (MLN4924 + Palbociclib; first compound 0.04 µM) | relative viability (MLN4924 + Palbociclib; first compound 0.1265 µM) | relative viability (MLN4924 + Palbociclib; first compound 0.4 µM) | relative viability (MLN4924 + Palbociclib; first compound 1.265 µM) | relative viability (MLN4924 + Palbociclib; first compound 4 µM) | relative viability (MLN4924 + Vorinostat; first compound 0.04 µM) | relative viability (MLN4924 + Vorinostat; first compound 0.1265 µM) | relative viability (MLN4924 + Vorinostat; first compound 0.4 µM) | relative viability (MLN4924 + Vorinostat; first compound 1.265 µM) | relative viability (MLN4924 + Vorinostat; first compound 4 µM)
NCI-H1975 | 0.741 | 0.649 | 0.607 | 0.643 | 0.616 | 0.427 | 0.321 | 0.431 | 0.397 | 0.377 | 0.549 | 0.696 | 0.707 | 0.557 | 0.231 | 0.706 | 0.704 | 0.993 | 0.559 | 0.248
BEN | 1.1 | 0.996 | 1.04 | 1.16 | 0.734 | 0.834 | 0.658 | 0.78 | 0.901 | 0.744 | 0.402 | 0.411 | 0.374 | 0.285 | 0.222 | 0.434 | 0.463 | 0.431 | 0.268 | 0.238
EPLC-272H | 1.05 | 0.997 | 0.919 | 0.951 | 0.902 | 0.441 | 0.349 | 0.39 | 0.358 | 0.361 | 0.29 | 0.281 | 0.102 | 0.232 | 0.181 | 0.195 | 0.184 | 0.098 | 0.0963 | 0.144
NCI-H661 | 0.802 | 0.638 | 0.657 | 0.478 | 0.58 | 0.626 | 0.506 | 0.498 | 0.535 | 0.563 | 0.421 | 0.427 | 0.34 | 0.292 | 0.366 | 0.601 | 0.619 | 0.389 | 0.317 | 0.382
LU99A | 0.554 | 0.512 | 0.52 | 0.572 | 0.594 | 0.986 | 0.915 | 1.03 | 0.916 | 0.999 | 0.414 | 0.333 | 0.318 | 0.163 | 0.125 | 0.514 | 0.381 | 0.3 | 0.119 | 0.106
NCI-H2405 | 0.774 | 0.664 | 0.827 | 0.761 | 0.667 | 0.757 | 0.66 | 0.71 | 0.747 | 0.729 | 0.516 | 0.456 | 0.41 | 0.22 | 0.252 | 0.861 | 0.849 | 0.411 | 0.181 | 0.19
NCI-H2009 | 1.26 | 1.16 | 1.17 | 1.13 | 1.14 | 0.372 | 0.334 | 0.45 | 0.403 | 0.381 | 0.0712 | 0.0898 | 0.0671 | 0.0534 | 0.0501 | 0.584 | 0.345 | 0.214 | 0.106 | 0.103
HOP-62 | 0.998 | 1.14 | 0.974 | 0.727 | 0.917 | 0.216 | 0.203 | 0.21 | 0.197 | 0.248 | 0.367 | 0.185 | 0.0998 | 0.0286 | 0.0302 | 0.395 | 0.378 | 0.116 | 0.0547 | 0.0779
NCI-H727 | 0.649 | 0.493 | 0.643 | 0.636 | 0.704 | 1.01 | 1.03 | 0.804 | 0.89 | 0.864 | 0.681 | 0.584 | 0.566 | 0.476 | 0.535 | 1.17 | 0.847 | 0.819 | 0.477 | 0.451
COR-L 105 | 0.984 | 1.03 | 0.927 | 1.02 | 0.966 | 0.591 | 0.629 | 0.653 | 0.575 | 0.667 | 0.414 | 0.395 | 0.337 | 0.321 | 0.34 | 0.71 | 0.709 | 0.353 | 0.232 | 0.403
PC-3 [JPC-3] | 1.04 | 1.13 | 1.05 | 1.02 | 1.07 | 0.831 | 0.74 | 0.826 | 0.86 | 0.881 | 0.556 | 0.53 | 0.373 | 0.346 | 0.46 | 0.735 | 0.787 | 0.409 | 0.338 | 0.468
NCI-H2347 | 1.22 | 0.918 | 1.09 | 0.99 | 0.907 | 0.478 | 0.588 | 0.607 | 0.567 | 0.648 | 0.426 | 0.46 | 0.399 | 0.312 | 0.339 | 0.494 | 0.562 | 0.433 | 0.347 | 0.327
SW 1573 | 0.725 | 0.811 | 0.819 | 0.773 | 0.786 | 0.648 | 0.463 | 0.431 | 0.573 | 0.517 | 0.375 | 0.306 | 0.155 | 0.0802 | 0.0896 | 0.48 | 0.521 | 0.14 | 0.0422 | 0.0551
NCI-H838 | 1.12 | 0.982 | 0.866 | 0.845 | 0.809 | 0.52 | 0.492 | 0.451 | 0.508 | 0.502 | 0.253 | 0.256 | 0.175 | 0.138 | 0.138 | 0.631 | 0.4 | 0.284 | 0.168 | 0.151
HCC-44 | 0.884 | 0.841 | 0.813 | 0.81 | 0.859 | 0.918 | 1.06 | 1.06 | 0.89 | 0.971 | 1 | 0.756 | 0.793 | 0.636 | 0.45 | 1.04 | 0.731 | 0.726 | 0.415 | 0.376
HCC-78 | 0.413 | 0.304 | 0.287 | 0.301 | 0.372 | 0.756 | 0.659 | 0.683 | 0.839 | 0.74 | 0.52 | 0.462 | 0.472 | 0.422 | 0.418 | 0.442 | 0.309 | 0.5 | 0.245 | 0.225

— the supplement of paper PMC10307832
